Several values for one entry are separate records, joined by “and”; a condition that tells them apart may be missing. Identical values can stand only once. Entries after “also recorded” stand apart in the source; their conditions may differ. Like-named read-outs stand apart in the source and are kept apart here.
Columns and labels:
cortical excitability = experiment: TMS crossover study, TMS-induced oscillations; type: in vivo, human
Experimental: Before drug intake, at baseline, TMS induced an early increase of theta/alpha power followed by a beta power decrease (de-synchronization) and a final late response of increased beta power. The effects of the active compound on TMS-induced oscillations were then analysed by means of a cluster-based permutation analysis following the same procedure as adopted in the analysis of TEPs. Theta (4-7 Hz), alpha (8-12 Hz) and beta (13-30 Hz) TMS-induced oscillations were compared from 30 ms (the first time-frequency point considered artefact free) to 800 ms between drug conditions. This method was preferred instead of a predetermined set of time windows, given the absence of a consensus for time windows of interest to be used in the TMS induced oscillation analysis. Also, the present cluster-based statistics approach is appropriate for exploratory analyses, as it minimizes false-positives involved in testing multiple time-points.

[1] = test system: GABA-A receptor mediated intracortical inhibition; experiment: TMS crossover study, short-interval intracortical inhibition (SICI); type: in vivo, human; conditions: for Short Intracortical Inhibition (Mean Conditioned MEP/Mean Unconditioned MEP): individual subjects; for Short Intracortical Inhibition (Mean Conditioned MEP/Mean Unconditioned MEP) / Short Intracortical Inhibition (Mean Conditioned MEP/Mean Unconditioned MEP), Mean: ISI 2 ms; for Short Intracortical Inhibition (Mean Conditioned MEP/Mean Unconditioned MEP), Mean: mean of subjects
Experimental: Short-interval intracortical inhibition (SICI) was measured using 15 conditioning-test stimuli pairs given in a random order at an interstimulus interval (ISI) of 2 ms. The conditioning stimulus was set at 80% of AMT and the suprathreshold stimulus 120% RMT. The calculation of SICI utilized custom scripts to measure the amplitudes of conditioned and unconditioned motor evoked potentials (MEPs) and to express SICI as the ratio of mean conditioned MEPs over mean unconditioned MEPs.

[2] = First-in-human SAD and MAD study, pharmacokinetics; type: in vivo; conditions: for Cmax / Tmax / AUC(0-t): human, plasma, oral
Experimental: A first-in-human study was conducted to evaluate the safety, tolerability and pharmacokinetics (PK) of single and multiple ascending doses (SAD and MAD) of oral Compound A.
In the SAD Phase, 32 healthy volunteers were randomized (3:1) to Compound A (5, 15, 20, 25 or 30 mg) or placebo. The study featured an adaptive design. A crossover food effect cohort (N=10) was also completed with single doses of 20 mg. A sub-set of 8 male subjects were also assessed with Transcranial Magnetic Stimulation (TMS) for effects on cortical excitability (see Examples 4 and 5).
Repeat doses of Compound A (15 mg QD) were evaluated in a fasted and fed state over 7 and 10 days, respectively. Repeat doses of Compound A (25 mg QD) were also evaluated in a fed state over 10 days.
Compound A was formulated as an immediate release capsule. Serial plasma PK samples were collected for all cohorts. Safety evaluations throughout the study included adverse event (AE) monitoring, clinical laboratory tests, vital signs, ECGs, physical examinations and Columbia-Suicide Severity Rating Scale.

[3] = at highest Compound A plasma concentration vs pre-dose
[4] = 5 mg, SAD, 5 mg fasted, N=3, Mean ± SD
[5] = 15 mg, MAD, 15 mg Fed, Day 1, N=6, mean
[6] = 15 mg, MAD, 15 mg Fed, Day 10, N=6, mean
[7] = 15 mg, MAD, 15 mg QD Fasted, Day 1, N=6, mean
[8] = 15 mg, MAD, 15 mg QD Fasted, Day 7, N=6, mean

Cc1cc(N2CCc3cc(F)ccc3C2)cc(C)c1NC(=O)CC(C)(C)C [Compound A, N-[4-(6-fluoro-3,4-dihydro-1H-isoquinolin-2-yl)-2,6-dimethylphenyl]-3,3-dimethylbutanamide]
Modulation of TMS-induced oscillations, Alpha (cortical excitability; 2 h after dosing vs pre-dose): Not significant | Modulation of TMS-induced oscillations, Beta (cortical excitability; 2 h after dosing vs pre-dose): Not significant | Modulation of TMS-induced oscillations, Theta (cortical excitability; 2 h after dosing vs pre-dose): Not significant | Modulation of TMS-induced oscillations, Alpha (cortical excitability; 4 h after dosing vs pre-dose): ↓ Alpha 250-390 ms | Modulation of TMS-induced oscillations, Beta (cortical excitability; 4 h after dosing vs pre-dose): ↑ Beta 250-330 ms | Modulation of TMS-induced oscillations, Theta (cortical excitability; 4 h after dosing vs pre-dose): ↓ Theta 30-180 ms | theta TMS-induced oscillations (cortical excitability; all available subjects, 2 h post-dose): trend to suppress | alpha TMS-induced oscillations (cortical excitability; all available subjects, 4 h, p=0.03, 250 to 400 ms): suppressed | theta induced oscillations (cortical excitability; all available subjects, 6 h, p=0.03, 80 to 300 ms): significant depression | alpha band TMS-induced oscillations (cortical excitability; all available subjects, 6 h, trend p=0.07, 270-390 ms): trend to suppress | Modulation of TMS-induced oscillations, Alpha (cortical excitability; [3]): ↓ Alpha 220-400 ms | Modulation of TMS-induced oscillations, Beta (cortical excitability; [3]): ↑ Beta 210-310 ms | Modulation of TMS-induced oscillations, Theta (cortical excitability; [3]): ↓ Theta 30-390 ms | early theta TMS-induced oscillations (cortical excitability; concentration analysis N=16, p<0.001, 30 to 390 ms): suppressed | alpha TMS-induced oscillations (cortical excitability; concentration analysis N=16, p=0.02, 220 to 400 ms): suppressed | beta TMS-induced power (cortical excitability; concentration analysis N=16, p=0.04, 220 to 310 ms): increased | TMS-induced oscillations (cortical excitability; subjects with drug exposure, 2 h post-dose): did not modulate oscillations | early theta TMS-induced oscillations (cortical excitability; subjects with drug exposure, 4 h, p=0.03, 30 to 180 ms): suppressed | alpha TMS-induced oscillations (cortical excitability; subjects with drug exposure, 4 h, p=0.03, 250 to 390 ms): suppressed | beta TMS-induced desynchronization (cortical excitability; subjects with drug exposure, 4 h, p=0.04, 250 to 330 ms): increased | theta induced oscillations (cortical excitability; subjects with drug exposure, 6 h, p<0.001, 30 to 280 ms): significant depression | SICI (mean conditioned MEPs/mean unconditioned MEPs) ([1]; 20 mg single dose): no significant findings; also recorded: lack of an effect on SICI | Short Intracortical Inhibition (Mean Conditioned MEP/Mean Unconditioned MEP) ([1]; 2 h post-dose): 0.71 and 0.72 and 1.29 and 0.91 (2×) and 0.94 and 1.11 and 0.96 and 1.18 and 2.68 and 0.92 (2×) and 0.97 and 1.12 and 1.31 and 1.09 and 1.03 and 0.85 and 0.67 | Short Intracortical Inhibition (Mean Conditioned MEP/Mean Unconditioned MEP) ([1]; 4 h post-dose): 1.03 (2×) and 0.93 and 0.54 and 1.20 and 1.68 and 1.64 and 0.86 and 0.61 and 1.01 and 1.53 and 1.04 and 1.17 and 0.89 and 1.27 and 0.87 and 0.75 and 1.07 and 1.02 | Short Intracortical Inhibition (Mean Conditioned MEP/Mean Unconditioned MEP), Mean ([1]; 2 h post-dose): 1.07 | Short Intracortical Inhibition (Mean Conditioned MEP/Mean Unconditioned MEP), Mean ([1]; 4 h post-dose): 1.06 | absorption enhanced by food, AUCinf ([2]; crossover food effect cohort, 20 mg): ~1.8 fold | dose proportionality of exposure ([2]; fasted state): less than dose-proportional exposure | Cmax [2, 4]: 7.13 ± 6.12 ng/mL | Tmax [2, 4]: 3.17 ± 2.47 h | AUC(0-t) ([2]; 5 mg, SAD, 5 mg fasted, N=3, Mean ± SD, read-out: AUC0-24): 74.6 ± 50.5 ng·h/mL | AUC(0-t) ([2]; 5 mg, SAD, 5 mg fasted, N=3, tLast 32 h, Mean ± SD, read-out: AUC0-t): 91.3 ± 54.2 ng·h/mL | Cmax [2, 5]: 35.9 ng/mL | Tmax [2, 5]: 4.37 h | AUC(0-t) ([2]; 15 mg, MAD, 15 mg Fed, Day 1, N=6, mean, read-out: AUC0-24): 353 ng·h/mL | Cmax [2, 6]: 60.8 ng/mL | Tmax [2, 6]: 3.69 h | AUC(0-t) ([2]; 15 mg, MAD, 15 mg Fed, Day 10, N=6, mean, read-out: AUC0-24): 1020 ng·h/mL | AUC(0-t) ([2]; 15 mg, MAD, 15 mg Fed, Day 10, N=6, mean, read-out: AUC0-t): 4950 ng·h/mL | Cmax [2, 7]: 10.5 ng/mL | Tmax [2, 7]: 2.68 h | AUC(0-t) ([2]; 15 mg, MAD, 15 mg QD Fasted, Day 1, N=6, mean, read-out: AUC0-24): 125 ng·h/mL | Cmax [2, 8]: 45.1 ng/mL | Tmax [2, 8]: 2.69 h | AUC(0-t) ([2]; 15 mg, MAD, 15 mg QD Fasted, Day 7, N=6, mean, read-out: AUC0-24): 757 ng·h/mL | AUC(0-t) ([2]; 15 mg, MAD, 15 mg QD Fasted, Day 7, N=6, mean, read-out: AUC0-t): 4260 ng·h/mL
